Assay results taken from the kinase profiling compilation of Christmann-Franck et al. (2016).

Legend:
Experiment in all cases: radiometric filter-binding kinase assay, Kinase HotSpot
Conditions in all cases: compound 0.5 µM; ATP 10 µM
[1] = target: AURKA (human) (UniProt O14965)
[2] = target: AURKB (human) (UniProt Q96GD4)
[3] = target: CLK2 (human) (UniProt P49760)
[4] = target: DAPK2 (human) (UniProt Q9UIK4)
[5] = target: EPHB1 (human) (UniProt P54762)
[6] = target: ERBB2 (human) (UniProt P04626)
[7] = target: FGFR1 (human) (UniProt P11362)
[8] = target: FGFR2 (human) (UniProt P21802)
[9] = target: FLT1 (human) (UniProt P17948)
[10] = target: FYN (human) (UniProt P06241)
Sequence of FYN (human) (P06241 whole entry, looked up): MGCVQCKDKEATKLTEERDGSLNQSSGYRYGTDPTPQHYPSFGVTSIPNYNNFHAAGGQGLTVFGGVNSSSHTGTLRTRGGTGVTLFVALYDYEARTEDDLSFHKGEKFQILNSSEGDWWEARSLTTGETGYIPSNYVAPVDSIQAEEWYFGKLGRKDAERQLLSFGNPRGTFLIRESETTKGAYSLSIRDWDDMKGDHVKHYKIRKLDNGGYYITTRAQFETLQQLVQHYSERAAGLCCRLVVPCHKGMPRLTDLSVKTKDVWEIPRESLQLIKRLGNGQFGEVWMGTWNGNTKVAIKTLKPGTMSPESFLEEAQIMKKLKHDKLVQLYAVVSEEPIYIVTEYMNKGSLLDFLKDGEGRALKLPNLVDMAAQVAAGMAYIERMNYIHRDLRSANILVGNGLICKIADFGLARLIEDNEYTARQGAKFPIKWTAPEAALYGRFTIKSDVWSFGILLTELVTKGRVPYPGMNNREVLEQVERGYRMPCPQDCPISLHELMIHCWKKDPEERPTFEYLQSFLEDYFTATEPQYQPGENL

[11] = target: GRK6 (human) (UniProt P43250)
[12] = target: GSK3A (human) (UniProt P49840)
[13] = target: INSR (human) (UniProt P06213)
[14] = target: INSRR (human) (UniProt P14616)
[15] = target: JAK2 JH1 JH2 (human) (UniProt O60674)
Sequence of JAK2 JH1 JH2 (human) (O60674 whole entry, looked up): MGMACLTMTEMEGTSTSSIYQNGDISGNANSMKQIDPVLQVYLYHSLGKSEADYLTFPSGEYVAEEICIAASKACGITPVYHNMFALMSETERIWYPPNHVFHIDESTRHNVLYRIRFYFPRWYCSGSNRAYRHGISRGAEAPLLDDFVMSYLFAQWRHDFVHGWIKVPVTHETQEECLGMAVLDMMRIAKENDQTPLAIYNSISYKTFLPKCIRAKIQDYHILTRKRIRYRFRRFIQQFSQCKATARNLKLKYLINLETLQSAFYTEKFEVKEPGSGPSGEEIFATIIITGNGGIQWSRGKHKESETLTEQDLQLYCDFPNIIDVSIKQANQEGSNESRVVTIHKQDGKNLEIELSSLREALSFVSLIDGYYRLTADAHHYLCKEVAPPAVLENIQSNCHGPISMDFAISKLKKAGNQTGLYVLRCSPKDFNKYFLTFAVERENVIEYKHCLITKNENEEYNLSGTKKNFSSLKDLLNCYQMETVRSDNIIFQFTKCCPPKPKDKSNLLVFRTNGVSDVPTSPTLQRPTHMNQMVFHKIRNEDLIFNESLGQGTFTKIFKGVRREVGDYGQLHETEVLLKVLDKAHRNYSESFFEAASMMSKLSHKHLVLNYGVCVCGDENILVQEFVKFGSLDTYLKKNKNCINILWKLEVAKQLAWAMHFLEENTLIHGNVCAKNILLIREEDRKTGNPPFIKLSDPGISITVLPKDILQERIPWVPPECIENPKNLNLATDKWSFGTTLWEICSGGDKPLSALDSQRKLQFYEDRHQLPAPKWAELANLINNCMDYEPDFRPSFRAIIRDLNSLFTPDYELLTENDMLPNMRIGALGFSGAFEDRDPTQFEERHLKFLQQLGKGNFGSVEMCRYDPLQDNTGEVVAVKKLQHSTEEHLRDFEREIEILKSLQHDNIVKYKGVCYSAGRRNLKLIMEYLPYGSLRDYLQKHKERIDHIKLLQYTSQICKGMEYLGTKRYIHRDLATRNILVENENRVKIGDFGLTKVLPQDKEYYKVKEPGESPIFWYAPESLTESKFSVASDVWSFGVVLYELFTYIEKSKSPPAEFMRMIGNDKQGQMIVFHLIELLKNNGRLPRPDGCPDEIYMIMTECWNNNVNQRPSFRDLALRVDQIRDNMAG

[16] = target: MAP3K8 (human) (UniProt P41279)
[17] = target: MAPK1 (human) (UniProt P28482)
[18] = target: MAPK12 (human) (UniProt P53778)
Sequence of MAPK12 (human) (P53778 whole entry, looked up): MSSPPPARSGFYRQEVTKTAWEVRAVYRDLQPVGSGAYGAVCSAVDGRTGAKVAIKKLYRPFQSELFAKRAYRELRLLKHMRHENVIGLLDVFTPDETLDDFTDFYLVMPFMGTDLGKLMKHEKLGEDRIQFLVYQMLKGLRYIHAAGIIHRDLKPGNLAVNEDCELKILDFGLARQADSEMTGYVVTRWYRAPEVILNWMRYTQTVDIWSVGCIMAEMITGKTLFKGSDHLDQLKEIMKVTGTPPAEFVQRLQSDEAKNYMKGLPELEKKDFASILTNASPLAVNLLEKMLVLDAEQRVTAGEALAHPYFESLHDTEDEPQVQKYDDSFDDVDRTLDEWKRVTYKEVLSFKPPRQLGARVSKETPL

[19] = target: MAPK13 (human) (UniProt O15264)
Sequence of MAPK13 (human) (O15264 whole entry, looked up): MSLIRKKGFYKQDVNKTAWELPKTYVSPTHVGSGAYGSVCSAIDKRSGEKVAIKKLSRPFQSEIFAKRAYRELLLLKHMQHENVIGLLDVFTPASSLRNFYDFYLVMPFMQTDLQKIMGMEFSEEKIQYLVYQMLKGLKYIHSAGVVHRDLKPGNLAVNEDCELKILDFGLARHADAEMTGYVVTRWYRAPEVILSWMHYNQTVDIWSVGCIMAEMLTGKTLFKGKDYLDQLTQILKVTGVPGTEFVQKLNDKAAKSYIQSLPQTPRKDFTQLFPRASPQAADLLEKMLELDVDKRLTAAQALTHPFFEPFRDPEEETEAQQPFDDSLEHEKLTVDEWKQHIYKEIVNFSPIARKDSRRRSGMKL

[20] = target: MAPK14 (human) (UniProt Q16539)
[21] = target: MAPKAPK5 (human) (UniProt Q8IW41)
[22] = target: MARK1 (human) (UniProt Q9P0L2)
[23] = target: MARK2 (human) (UniProt Q7KZI7)
Sequence of MARK2 (human) (Q7KZI7 whole entry, looked up): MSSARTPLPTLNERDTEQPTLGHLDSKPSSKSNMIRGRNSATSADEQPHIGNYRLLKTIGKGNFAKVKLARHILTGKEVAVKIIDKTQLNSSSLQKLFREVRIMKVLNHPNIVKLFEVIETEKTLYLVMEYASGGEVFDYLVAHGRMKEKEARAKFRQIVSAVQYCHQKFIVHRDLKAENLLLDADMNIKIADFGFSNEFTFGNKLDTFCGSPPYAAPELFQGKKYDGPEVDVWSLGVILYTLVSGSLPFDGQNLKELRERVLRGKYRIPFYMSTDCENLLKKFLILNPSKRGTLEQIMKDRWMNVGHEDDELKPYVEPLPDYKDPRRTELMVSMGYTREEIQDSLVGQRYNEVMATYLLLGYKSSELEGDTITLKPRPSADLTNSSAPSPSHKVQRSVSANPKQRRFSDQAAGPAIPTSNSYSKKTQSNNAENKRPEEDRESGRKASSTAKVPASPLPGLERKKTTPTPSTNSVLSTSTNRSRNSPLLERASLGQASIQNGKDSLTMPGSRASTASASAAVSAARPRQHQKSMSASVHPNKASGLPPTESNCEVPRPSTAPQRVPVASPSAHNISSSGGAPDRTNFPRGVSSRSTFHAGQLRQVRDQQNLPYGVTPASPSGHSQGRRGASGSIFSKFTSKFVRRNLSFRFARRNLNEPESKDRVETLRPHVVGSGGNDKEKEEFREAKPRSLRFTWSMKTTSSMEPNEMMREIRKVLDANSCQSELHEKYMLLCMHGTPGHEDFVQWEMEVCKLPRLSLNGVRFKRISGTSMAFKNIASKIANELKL

[24] = target: MUSK (human) (UniProt O15146)
[25] = target: PAK3 (human) (UniProt O75914)
Sequence of PAK3 (human) (O75914 whole entry, looked up): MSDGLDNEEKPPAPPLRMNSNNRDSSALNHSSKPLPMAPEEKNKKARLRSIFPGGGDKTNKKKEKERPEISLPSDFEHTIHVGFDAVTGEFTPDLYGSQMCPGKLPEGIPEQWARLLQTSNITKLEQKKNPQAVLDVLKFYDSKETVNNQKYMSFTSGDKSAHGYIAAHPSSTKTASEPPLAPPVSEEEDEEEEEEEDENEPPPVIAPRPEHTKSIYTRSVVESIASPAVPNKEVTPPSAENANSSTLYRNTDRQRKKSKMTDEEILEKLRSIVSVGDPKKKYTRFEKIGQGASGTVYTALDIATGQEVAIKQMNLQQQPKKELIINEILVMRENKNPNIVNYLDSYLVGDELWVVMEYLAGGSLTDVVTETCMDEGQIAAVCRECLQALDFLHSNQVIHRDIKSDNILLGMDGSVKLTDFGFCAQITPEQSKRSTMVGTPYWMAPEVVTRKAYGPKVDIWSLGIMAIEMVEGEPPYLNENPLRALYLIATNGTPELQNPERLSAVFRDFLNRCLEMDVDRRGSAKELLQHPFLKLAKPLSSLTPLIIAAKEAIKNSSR

[26] = target: PDGFRB (human) (UniProt P09619)
[27] = target: PDPK1 (human) (UniProt O15530)
[28] = target: PHKG2 (human) (UniProt P15735)
[29] = target: PIM2 (human) (UniProt Q9P1W9)
Sequence of PIM2 (human) (Q9P1W9 whole entry, looked up): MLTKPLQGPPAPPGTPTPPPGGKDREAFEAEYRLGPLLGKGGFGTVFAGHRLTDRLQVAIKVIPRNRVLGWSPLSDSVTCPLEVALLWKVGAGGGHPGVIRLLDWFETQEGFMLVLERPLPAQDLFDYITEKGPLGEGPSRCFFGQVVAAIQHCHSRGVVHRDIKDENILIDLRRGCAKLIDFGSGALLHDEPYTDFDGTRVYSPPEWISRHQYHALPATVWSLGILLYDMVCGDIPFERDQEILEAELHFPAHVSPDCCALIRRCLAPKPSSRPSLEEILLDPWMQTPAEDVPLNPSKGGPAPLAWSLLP

[30] = target: PLK1 (human) (UniProt P53350)
Sequence of PLK1 (human) (P53350 whole entry, looked up): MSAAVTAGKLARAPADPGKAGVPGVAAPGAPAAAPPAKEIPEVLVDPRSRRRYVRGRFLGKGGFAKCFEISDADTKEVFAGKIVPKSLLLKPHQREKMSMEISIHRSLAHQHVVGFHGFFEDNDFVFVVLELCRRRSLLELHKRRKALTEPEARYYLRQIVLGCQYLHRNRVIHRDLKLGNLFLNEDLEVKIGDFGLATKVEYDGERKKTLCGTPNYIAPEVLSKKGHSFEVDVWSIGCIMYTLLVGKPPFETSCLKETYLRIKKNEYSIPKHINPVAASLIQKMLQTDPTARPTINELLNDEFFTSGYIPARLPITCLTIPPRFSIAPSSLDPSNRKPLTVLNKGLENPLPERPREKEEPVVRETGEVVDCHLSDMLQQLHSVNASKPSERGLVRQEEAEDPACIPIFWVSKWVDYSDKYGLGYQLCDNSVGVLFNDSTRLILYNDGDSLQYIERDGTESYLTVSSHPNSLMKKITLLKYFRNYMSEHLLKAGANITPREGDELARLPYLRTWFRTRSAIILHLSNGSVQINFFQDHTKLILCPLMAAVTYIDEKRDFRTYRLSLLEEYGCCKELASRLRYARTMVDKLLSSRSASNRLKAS

[31] = target: PLK2 (human) (UniProt Q9NYY3)
[32] = target: PRKACA (human) (UniProt P17612)
[33] = target: PRKCB1 (human) (UniProt P05771)
[34] = target: PRKCE (human) (UniProt Q02156)
[35] = target: PRKD3 (human) (UniProt O94806)
[36] = target: RPS6KA1 KD1 KD2 (human) (UniProt Q15418)
[37] = target: RPS6KB1 (human) (UniProt P23443)
[38] = target: TBK1 (human) (UniProt Q9UHD2)
[39] = target: TSSK2 (human) (UniProt Q96PF2)
[40] = target: TYRO3 (human) (UniProt Q06418)
[41] = target: ULK2 (human) (UniProt Q8IYT8)
[42] = target: WNK2 (human) (UniProt Q9Y3S1)

Sequence of AURKB (human) (Q96GD4 whole entry, looked up): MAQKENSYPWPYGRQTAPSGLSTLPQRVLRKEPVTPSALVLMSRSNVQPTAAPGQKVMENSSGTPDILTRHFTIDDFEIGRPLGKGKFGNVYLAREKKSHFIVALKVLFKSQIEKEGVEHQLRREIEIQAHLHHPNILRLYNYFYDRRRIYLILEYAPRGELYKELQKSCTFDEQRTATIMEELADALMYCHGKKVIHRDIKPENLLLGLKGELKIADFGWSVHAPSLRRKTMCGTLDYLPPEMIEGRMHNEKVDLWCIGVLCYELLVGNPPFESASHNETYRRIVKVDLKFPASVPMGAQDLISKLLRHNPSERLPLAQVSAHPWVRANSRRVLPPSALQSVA

CCC(=O)Nc1ccc2ncnc(Nc3cccc(Br)c3)c2c1
residual activity [1]: 97.4% | residual activity [2]: 95.4% | residual activity [3]: 101% | residual activity [4]: 121% | residual activity [5]: 93.3% | residual activity [6]: 34% | residual activity [7]: 108% | residual activity [8]: 99.8% | residual activity [9]: 86.9% | residual activity [10]: 107% | residual activity [11]: 97.6% | residual activity [12]: 98.2% | residual activity [13]: 101% | residual activity [14]: 98.4% | residual activity [15]: 103% | residual activity [16]: 93% | residual activity [17]: 77.7% | residual activity [18]: 103% | residual activity [19]: 106% | residual activity [20]: 82.8% | residual activity [21]: 105% | residual activity [22]: 98.5% | residual activity [23]: 73.5% | residual activity [24]: 87.8% | residual activity [25]: 105% | residual activity [26]: 98% | residual activity [27]: 107% | residual activity [28]: 109% | residual activity [29]: 90.3% | residual activity [30]: 95.3% | residual activity [31]: 108% | residual activity [32]: 94.6% | residual activity [33]: 99.2% | residual activity [34]: 99.7% | residual activity [35]: 85.9% | residual activity [36]: 88.7% | residual activity [37]: 91.2% | residual activity [38]: 95.6% | residual activity [39]: 82.8% | residual activity [40]: 101% | residual activity [41]: 118% | residual activity [42]: 107%

O=C1NC(=O)/C(=C/c2ccc3c(c2)OC(F)(F)O3)S1
residual activity [1]: 92.4% | residual activity [2]: 102% | residual activity [3]: 96.6% | residual activity [4]: 105% | residual activity [5]: 95.6% | residual activity [6]: 102% | residual activity [7]: 94.3% | residual activity [8]: 97.6% | residual activity [9]: 81.5% | residual activity [10]: 96% | residual activity [11]: 95.4% | residual activity [12]: 88.1% | residual activity [13]: 106% | residual activity [14]: 110% | residual activity [15]: 92.9% | residual activity [16]: 93% | residual activity [17]: 85.7% | residual activity [18]: 92.8% | residual activity [19]: 101% | residual activity [20]: 86.7% | residual activity [21]: 98.2% | residual activity [22]: 97.2% | residual activity [23]: 96.8% | residual activity [24]: 70.9% | residual activity [25]: 93.1% | residual activity [26]: 97.4% | residual activity [27]: 100% | residual activity [28]: 95.2% | residual activity [29]: 91.9% | residual activity [30]: 92.9% | residual activity [31]: 99.7% | residual activity [32]: 101% | residual activity [33]: 97.7% | residual activity [34]: 103% | residual activity [35]: 91.4% | residual activity [36]: 71.1% | residual activity [37]: 85.1% | residual activity [38]: 93.3% | residual activity [39]: 101% | residual activity [40]: 99.6% | residual activity [41]: 100% | residual activity [42]: 113%

O=c1cc(N2CCOCC2)oc2c1ccc1ccccc12
residual activity [1]: 98% | residual activity [2]: 97.6% | residual activity [3]: 101% | residual activity [4]: 115% | residual activity [5]: 104% | residual activity [6]: 105% | residual activity [7]: 92.1% | residual activity [8]: 107% | residual activity [9]: 95.5% | residual activity [10]: 113% | residual activity [11]: 93.8% | residual activity [12]: 97.1% | residual activity [13]: 92.3% | residual activity [14]: 97.4% | residual activity [15]: 94.9% | residual activity [16]: 98.3% | residual activity [17]: 104% | residual activity [18]: 97.4% | residual activity [19]: 99.8% | residual activity [20]: 96.7% | residual activity [21]: 98.4% | residual activity [22]: 99.5% | residual activity [23]: 101% | residual activity [24]: 75.6% | residual activity [25]: 102% | residual activity [26]: 111% | residual activity [27]: 109% | residual activity [28]: 99.8% | residual activity [29]: 78.8% | residual activity [30]: 68.4% | residual activity [31]: 106% | residual activity [32]: 102% | residual activity [33]: 93.4% | residual activity [34]: 89.6% | residual activity [35]: 98.8% | residual activity [36]: 92% | residual activity [37]: 99.3% | residual activity [38]: 102% | residual activity [39]: 100% | residual activity [40]: 97.3% | residual activity [41]: 94.9% | residual activity [42]: 103%
